In the series the test system is CCRIS mutagenicity, Ames/micronucleus/aberration tests. In words: CCRIS mutagenicity studies.
Setting [1] is: Test System: AMES SALMONELLA TYPHIMURIUM, Strain/Indicator: TA97, Metabolic Activation: NONE, Method: PREINCUBATION
The mark [2] stands for this setting: Test System: AMES SALMONELLA TYPHIMURIUM, Strain/Indicator: TA1535, Metabolic Activation: NONE, Method: PREINCUBATION
Setting [3] is: Test System: AMES SALMONELLA TYPHIMURIUM, Strain/Indicator: TA98, Metabolic Activation: NONE, Method: PREINCUBATION

Active and inactive are the calls of the source. The rule behind the calls is not given here.

With `CCCCCCCCCc1ccc(O)cc1`, the mutagenic call by setting is: under setting [1], “inactive; negative”; (Test System: AMES SALMONELLA TYPHIMURIUM, Strain/Indicator: TA97, Metabolic Activation: S-9, Method: PREINCUBATION) “inactive; negative”; (Test System: AMES SALMONELLA TYPHIMURIUM, Strain/Indicator: TA98, Metabolic Activation: RAT, LIVER, S-9, KC 500, Method: PREINCUBATION) “inactive; negative”; (Test System: AMES SALMONELLA TYPHIMURIUM, Strain/Indicator: TA98, Metabolic Activation: RAT, LIVER, S-9, SODIUM PHENOBARBITAL AND 5,6-BENZOFLAVONE, Method: PREINCUBATION) “inactive; negative”; (Test System: AMES SALMONELLA TYPHIMURIUM, Strain/Indicator: TA98, Metabolic Activation: S-9, Method: PREINCUBATION) “inactive; negative”; (Test System: AMES SALMONELLA TYPHIMURIUM, Strain/Indicator: TA100, Metabolic Activation: RAT, LIVER, S-9, KC 500, Method: PREINCUBATION) “inactive; negative”. Besides, the mutagenic call is “inactive; negative” (Test System: AMES SALMONELLA TYPHIMURIUM, Strain/Indicator: TA100, Metabolic Activation: RAT, LIVER, S-9, SODIUM PHENOBARBITAL AND 5,6-BENZOFLAVONE, Method: PREINCUBATION); “inactive; negative” (Test System: AMES SALMONELLA TYPHIMURIUM, Strain/Indicator: TA100, Metabolic Activation: S-9, Method: PREINCUBATION); “inactive; negative” (Test System: AMES SALMONELLA TYPHIMURIUM, Strain/Indicator: TA102, Metabolic Activation: RAT, LIVER, S-9, SODIUM PHENOBARBITAL AND 5,6-BENZOFLAVONE, Method: PREINCUBATION); “inactive; negative” (Test System: AMES SALMONELLA TYPHIMURIUM, Strain/Indicator: TA102, Metabolic Activation: S-9, Method: PREINCUBATION); “inactive; negative” (Test System: AMES SALMONELLA TYPHIMURIUM, Strain/Indicator: TA104, Metabolic Activation: NONE, Method: PREINCUBATION); “inactive; negative” (Test System: AMES SALMONELLA TYPHIMURIUM, Strain/Indicator: TA104, Metabolic Activation: RAT, LIVER, S-9, SODIUM PHENOBARBITAL AND 5,6-BENZOFLAVONE, Method: PREINCUBATION). Also, the mutagenic call was “inactive; negative” (Test System: AMES SALMONELLA TYPHIMURIUM, Strain/Indicator: TA104, Metabolic Activation: S-9, Method: PREINCUBATION); “inactive; negative” under setting [2]; “inactive; negative” (Test System: AMES SALMONELLA TYPHIMURIUM, Strain/Indicator: TA1535, Metabolic Activation: RAT, LIVER, S-9, KC 500, Method: PREINCUBATION); “inactive; negative” (Test System: AMES SALMONELLA TYPHIMURIUM, Strain/Indicator: TA1535, Metabolic Activation: RAT, LIVER, S-9, SODIUM PHENOBARBITAL AND 5,6-BENZOFLAVONE, Method: PREINCUBATION); “inactive; negative” (Test System: AMES SALMONELLA TYPHIMURIUM, Strain/Indicator: TA1537, Metabolic Activation: NONE, Method: PREINCUBATION); “inactive; negative” (Test System: AMES SALMONELLA TYPHIMURIUM, Strain/Indicator: TA1537, Metabolic Activation: RAT, LIVER, S-9, KC 500, Method: PREINCUBATION). Further, the mutagenic call runs as follows: (Test System: AMES SALMONELLA TYPHIMURIUM, Strain/Indicator: TA1537, Metabolic Activation: RAT, LIVER, S-9, SODIUM PHENOBARBITAL AND 5,6-BENZOFLAVONE, Method: PREINCUBATION) “inactive; negative”; (Test System: AMES SALMONELLA TYPHIMURIUM, Strain/Indicator: TA1538, Metabolic Activation: NONE, Method: PREINCUBATION) “inactive; negative”; (Test System: AMES SALMONELLA TYPHIMURIUM, Strain/Indicator: TA1538, Metabolic Activation: RAT, LIVER, S-9, KC 500, Method: PREINCUBATION) “inactive; negative”; (Test System: E. COLI, Strain/Indicator: WP2UVRA/PKM101, Metabolic Activation: NONE, Method: PREINCUBATION) “inactive; negative”; (Test System: E. COLI, Strain/Indicator: WP2UVRA/PKM101, Metabolic Activation: RAT, LIVER, S-9, SODIUM PHENOBARBITAL AND 5,6-BENZOFLAVONE, Method: PREINCUBATION) “inactive; negative”; (Test System: E. COLI, Strain/Indicator: WP2 UVRA, Metabolic Activation: NONE, Method: PREINCUBATION) “inactive; negative”. In addition, the mutagenic call runs as follows: (Test System: E. COLI, Strain/Indicator: WP2UVRA, Metabolic Activation: NONE, Method: PREINCUBATION) “inactive; negative”; (Test System: E. COLI, Strain/Indicator: WP2 UVRA, Metabolic Activation: RAT, LIVER, S-9, KC 500, Method: PREINCUBATION) “inactive; negative”; (Test System: E. COLI, Strain/Indicator: WP2UVRA, Metabolic Activation: RAT, LIVER, S-9, SODIUM PHENOBARBITAL AND 5,6-BENZOFLAVONE, Method: PREINCUBATION) “inactive; negative”.
With `CCC(=O)N(O)c1ccc(-c2ccccc2)cc1`, the mutagenic call is, setting by setting: under setting [3], “inactive; negative”; (Test System: AMES SALMONELLA TYPHIMURIUM, Strain/Indicator: TA98, Metabolic Activation: RAT, LIVER, CYTOSOL, Method: PREINCUBATION) “inactive; negative”; (Test System: AMES SALMONELLA TYPHIMURIUM, Strain/Indicator: TA98, Metabolic Activation: RAT, LIVER, MICROSOMES, Method: PREINCUBATION) “active; positive”.
Turning to `COc1ccc(C(=O)ON(OCc2ccccc2)C(=O)c2ccccc2)cc1`, the mutagenic call is, setting by setting: (Test System: AMES SALMONELLA TYPHIMURIUM, Strain/Indicator: TA100, Metabolic Activation: NONE, Method: STANDARD PLATE) “active; positive”; (Test System: AMES SALMONELLA TYPHIMURIUM, Strain/Indicator: TA100, Metabolic Activation: RAT, S-9, AROCLOR, Method: STANDARD PLATE) “active; positive”.
Turning to `CC(=O)Nc1ccccc1N`, the mutagenic call (Test System: AMES SALMONELLA TYPHIMURIUM, Strain/Indicator: TA97, Metabolic Activation: HAMSTER, LIVER, S-9, AROCLOR 1254 (10%), Method: PREINCUBATION) was “active; positive”; the mutagenic call under setting [1] is “active; positive”; the mutagenic call (Test System: AMES SALMONELLA TYPHIMURIUM, Strain/Indicator: TA97, Metabolic Activation: RAT, LIVER, S-9, AROCLOR 1254 (10%), Method: PREINCUBATION) is “active; positive”; the mutagenic call (Test System: AMES SALMONELLA TYPHIMURIUM, Strain/Indicator: TA98, Metabolic Activation: HAMSTER, LIVER, S-9, AROCLOR 1254 (10%), Method: PREINCUBATION) is “active; positive”; the mutagenic call under setting [3] was “inactive; negative”; the mutagenic call (Test System: AMES SALMONELLA TYPHIMURIUM, Strain/Indicator: TA98, Metabolic Activation: RAT, LIVER, S-9, AROCLOR 1254 (10%), Method: PREINCUBATION) is “active; positive”. Also, the mutagenic call is, setting by setting: (Test System: AMES SALMONELLA TYPHIMURIUM, Strain/Indicator: TA100, Metabolic Activation: HAMSTER, LIVER, S-9, AROCLOR 1254 (10%), Method: PREINCUBATION) “active; positive”; (Test System: AMES SALMONELLA TYPHIMURIUM, Strain/Indicator: TA100, Metabolic Activation: NONE, Method: PREINCUBATION) “inactive; negative”; (Test System: AMES SALMONELLA TYPHIMURIUM, Strain/Indicator: TA100, Metabolic Activation: RAT, LIVER, S-9, AROCLOR 1254 (10%), Method: PREINCUBATION) “active; positive”; (Test System: AMES SALMONELLA TYPHIMURIUM, Strain/Indicator: TA1535, Metabolic Activation: HAMSTER, LIVER, S-9, AROCLOR 1254 (10%), Method: PREINCUBATION) “active; positive”; under setting [2], “inactive; negative”; (Test System: AMES SALMONELLA TYPHIMURIUM, Strain/Indicator: TA1535, Metabolic Activation: RAT, LIVER, S-9, AROCLOR 1254 (10%), Method: PREINCUBATION) “active; positive”.
Take `COc1cc(Cl)c(Cl)c(Cl)c1O`: the mutagenic call is “active; positive” (Test System: CHINESE HAMSTER V-79, Strain/Indicator: V-79/6-THIOGUANINE, Metabolic Activation: NONE, Method: STANDARD PLATE) and “inactive; negative” (Test System: CHINESE HAMSTER V-79, Strain/Indicator: V-79/6-THIOGUANINE, Metabolic Activation: PRIMARY RAT HEPATOCYTES, Method: STANDARD PLATE).

Source of the values: PubChem BioAssay AID1259407 (Chemical Carcinogenesis Research Information System (CCRIS), 2018).
